# From US10449135B2, “Solublizing agents for UV filters in cosmetic formulations” (BASF SE, priority 2014, dated 2019)
# Assay: Solubility tests of UV filters in the solubilizing agent
# Assay type: physicochemical
# Settings: solvent: morpholine amide of formula (AM-01); stirred seven days at 25° C.; concentration by UV/Vis-spectrometry
# Experimental: 2 ml of the solubilizing agent are filled into a 20 ml vial with cap. Afterwards 0.02 g (1%) of the respective substance (UV Filter) are weighed and added to the solvent. The vial is placed into a thermostat-controlled water bath, wherein the suspension/solution is stirred during seven days at 25° C. If the amount of substance put into the solubilizing agent is fully soluble, additional substance is added until precipitation can be observed. After seven days, the sample is centrifuged for 30 minutes at 13000 rpm at 25° C. The supernatant is transferred into a small beaker. In case the sample is still turbid, it is filtered through a 0.2 μm non-steril Membrex 25 PET filter. Clear solutions must not be filtered. When a clear solution is obtained, the concentration of the substance is determined with UV/Vis-spectrometry. For this purpose the sample may be diluted with a suitable solvent or, in case of lower concentrations, may be measured as is. In order to evaluate the concentration from the UV-spectroscopic results, the extinction coefficient is needed, which is determined independently with a solvent of similar polarity like that one used for dilution of the saturated solutions. The solubility can be calculated using the equation of the Lambert-Beer-Law.
row,Compound,Solubility of UV filter in solubilizing agent
1,CCCCCCOC(=O)c1ccccc1C(=O)c1ccc(N(CC)CC)cc1O [BPH-02],>40%
2,CCCCC(CC)COc1ccc(-c2nc(-c3ccc(OC)cc3)nc(-c3ccc(OCC(CC)CCCC)cc3O)n2)c(O)c1 (stereo not drawn) [HTP-02],15%
3,CCCCC(CC)COC(=O)c1ccc(Nc2nc(Nc3ccc(C(=O)OCC(CC)CCCC)cc3)nc(Nc3ccc(C(=O)OCC(CC)CCCC)cc3)n2)cc1 (stereo not drawn) [TAT-02],45%
